What was measured:
Type in all cases: in vivo, Lewis rats
IL-1β = test: PEC cytokine IL-1β, CIA rats fed PA extracts (Embodiment 4)
Protocol: (§1) 1. After carbon dioxide euthanasia, the outer furs of the rat abdominal cavity were cut out by scissors, to expose the whole abdominal cavity.
(§2) 2. HBSS buffer was injected into the abdominal cavity batch-wise by a 10 ml syringe to make a total volume of about 20 ml/rat.
(§3) 3. The abdominal cavity of the rat was opened after the abdomen was gently kneaded. An incision of about 2 cm was made in the abdominal cavity by using scissors. Peritoneal exudation cell (PEC) liquid (about 10 to 15 ml of cellular fluid could be collected) was drawn with a syringe, and placed into a 50 ml centrifuge tube.
(§4) 4. The supernatant was removed after the liquid was centrifuged at 1500 rpm for 5 minutes. 10 ml of HBSS buffer was added to wash, and then centrifuged, after which the supernatant was removed.
(§5) 5. The cell concentration was adjusted to 2×10^6 cells/ml with a fresh culture medium (containing antibiotics).
(§6) 6. The cell suspension was divided into a 48-well plate at 0.5 ml/well.
(§7) 7. An additional. 0.5 ml of lipopolysaccharides (LPS) (20 μg/ml) was added separately, making a final concentration of 10 μg/ml.
(§8) 8. Finally, it was placed into a 37° C. incubator for 24 hours. The supernatant was collected, and stored in −20° C. The concentrations of cytokine TNF-α, IL-6, and IL-1β were analyzed by using ELISA kit.
(§9) In the present animal test, the test animals and apparatus used are the same as those disclosed in embodiment 2.
The animal test scheme is shown as FIG. 11. Bovine collagen type II was dissolved in 0.1 M acetic acid solution, stirred to dissolve thoroughly, and formulated into solutions of concentrations of 1.5 and 3 mg/ml, which were stored at 4° C. for later use. For the first immune injection, 100 μl of C II solution was emulsified with an equal amount of CFA, and injected subcutaneously (200 μl/rat) in the root portions of tails of the rats after the emulsification was complete. […] After about 15 days, the second immunization was done. […]

Rheumatoid factor (RF) = test: Serum RF of CIA rats fed PA extracts (Embodiment 4)
Protocol: 1. Collagen was formulated in a coating buffer to a concentration of 40 μg/ml, 0.1 ml of which was added into a 96-well micro plate respectively, and was kept in 4° C. overnight.
2. After washing with Tris buffer three times, 0.2 ml of blocking buffer containing 1% BSA was added into each well. The reaction lasted for 2 hours at room temperature, and then was washed by Tris buffer three times again.
3. After the serum sample was diluted appropriately with Tris buffer containing 0.05% Tween 20 ( 1/20 or 1/40), 0.1 ml serum sample was added into each well of the 96-well micro plate. The reaction lasted for 2 hours at room temperature, and then was washed by Tris buffer three times again.
4. Coated anti-rat immunoglobulin M (IgM) was combined with horseradish […] (HRP), appropriately diluted ( 1/12000), and then added into the 96-well micro plate. The reaction lasted 2 hours at room temperature, and then was washed by Tris buffer three times again.
5. 0.1 ml of tetramethyl benzidine (TMB) was directly added into each well for color reaction, and then a stopping solution was added to stop the reaction. Finally, absorption (O.D) value was read out at the wavelength of 450 nm.
as §9
(§10) The animal test scheme is shown as FIG. 11. Bovine collagen type II was dissolved in 0.1 M acetic acid solution, stirred to dissolve thoroughly, and formulated into solutions of concentrations of 1.5 and 3 mg/ml, which were stored at 4° C. for later use. For the first immune injection, 100 μl of C II solution was emulsified with an equal amount of CFA, and injected subcutaneously (200 μl/rat) in the root portions of tails of the rats after the emulsification was complete. […] After about 15 days, the second immunization was done. 100 μl of C II solution was emulsified with an equal amount of IFA, and injected subcutaneously (200 μl/rat) in the root portions of tails of the rats after the emulsification was complete. Approximately from Day 18, the symptoms of arthritis were observed (CIA rats), and PA and CBX were fed from Day 19 until Day 38.

CIA rats [1] = test: Joint swelling degree (toe thickness) of CIA rats fed PA extracts (Embodiment 4)
Protocol: The thickness changes of soles of rats were measured by a Vernier Caliper (twice per week), and there were eight measurement sites in total in each rat, including one site at the center of each sole of the two front feet respectively, and three sites in each of the two back feet (ankle joint, sole, and root portion of toe) respectively.
as §9, §10

CIA rats [2] = test: Maximum arthritic index (MAI) of CIA rats fed PA extracts (Embodiment 4)
Protocol: After immunization, the rats were observed three times a week. The changes of redness and swelling or the like in limbs were recorded, and photographs were taken and filed for comparison. The scoring of the examinations was based on 5 grades as follows:
Maximum arthritic index, average MAI for each group was calculated as follows: Average MAI=Total of MAI recorded in limbs of each rat (0: no CIA occurs, 16: highest score)/4/total rat number of each group
as §9, §10

IL-6 = test: PEC cytokine IL-6, CIA rats fed PA extracts (Embodiment 4); settings: PEC of CIA rats, gavage Day 19-38; doses as in the 4th table
Protocol: as §1, §2, §3, §4, §5, §6, §7, §8
In the present animal test, the test animals and apparatus used are the same as those disclosed in embodiment 2. […]

[3] = PEC of CIA rats, gavage Day 19-38, doses as in the 4th table
[4] = gavage Day 19-38, doses as in the 4th table

`Cc1ccc(-c2cc(C(F)(F)F)nn2-c2ccc(S(N)(=O)=O)cc2)cc1` [CBX, Ceelebrex] was tested, and the “IL-1β, inhibitory effect” value (IL-1β; [3]) was “(38%)”, the “IL-1β, inhibitory effect (grade)” value (IL-1β; [3]) was “++ (“++” represents 25 to 50% of inhibitory effect)” and the “inhibition of PEC secreting IL-1β” value (IL-1β; PEC of fed CIA rats, FIG. 17) was “significantly inhibits”. The “reduction of serum RF value” (Rheumatoid factor (RF); Day 30 compared to Day 18, FIG. 15) was “about 52%”, the “reduction of serum RF value” (Rheumatoid factor (RF); Day 37 compared to Day 18, FIG. 15) was “about 66%” and the “RF, inhibitory effect” value (Rheumatoid factor (RF); [4]) was “(43%)”. The “RF, inhibitory effect (grade)” value (Rheumatoid factor (RF); [4]) was “++ (“++” represents 25 to 50% of inhibitory effect)”, the “Toe thickness, inhibitory effect (grade)” value (CIA rats [1]; gavage Day 19-38, CBX 18, PA-EtOH 40.5, PA-F1 3.0, PA-F2 1.13, PA-F3 11.3, PA-F4 11.3 mg/kg/day) was “++ (“++” represents 25 to 50% of inhibitory effect)” and the “Toe thickness, inhibitory effect” value (CIA rats [1]; [4]) was “(49%)”. For the same compound, the “MAI, inhibitory effect” value (CIA rats [2]; [4]) was “(40%)”, the “MAI, inhibitory effect (grade)” value (CIA rats [2]; [4]) was “++ (“++” represents 25 to 50% of inhibitory effect)” and the “effect on the arthritic indices (MAI) of CIA rats” value (CIA rats [2]; gavage Day 19 until Day 38, FIG. 13) was “most preferred”. For the same compound, the “IL-6, inhibitory effect” value (IL-6) was “(36%)” and the “IL-6, inhibitory effect (grade)” value (IL-6) was “++ (“++” represents 25 to 50% of inhibitory effect)”.
